Data: patent publication US9464113B2, “Anti-heparan sulfate peptides that block herpes simplex virus infection in vivo” (The Board of Trustees of the University of Illinois, priority 2010, dated 2016)

Tested on: HSV-1 (KOS) gL86
Test: HSV-1 entry into primary human corneal fibroblasts (CF)
Type: cell-based, herpes simplex virus type-1
Settings: CF, 6 h, ONPG (FIG. 4A)
Experimental: HSV-1 entry was assayed as described in Shukla et al., Cell 99:13-22 (1999). CHO-K1 cells were grown in 6-well plates to subconfluence and then transfected with 2.5 μg of expression plasmids for gD receptors nectin-1 (pBG38), HVEM (pBec10), 3-OST-3 isoform (pDS43), or pCDNA3.1 (empty vector) using LipofectAMINE (Gibco/BRL). At 16 h post-transfection, the cells were replated into 96-well dishes for pre-incubation with peptides at different concentrations for 60 min at room temperature. In parallel, natural target cells (HeLa, CF, and RPE) were also pre-treated with the peptides for the same duration. In all cases, unbound peptides were removed after washing 3× with PBS. Thereafter, cells were infected for 6 h with a recombinant virus, HSV-1 (KOS) gL86, at multiple plaque forming units (PFUs) and β-galactosidase assays were performed using either a soluble substrate o-nitrophenyl-β-D-galactopyranoside (ONPG at 3.0 mg/ml; ImmunoPure, Pierce) or X-gal (Sigma). For the soluble substrate, the enzymatic activity was measured at 410 nm using a micro-plate reader (Spectra Max 190, Molecular Devices, Sunnyvale, Calif.). For the X-gal assay, cells were fixed (2% formaldehyde and 0.2% glutaraldehyde) and permeabilized (2 mM MgCl2, 0.01% deoxycholate, and 0.02% nonidet NP-40 (Sigma)). 1 ml of β-galactosidase reagent (1.0 mg/ml X-gal in ferricyanide buffer) was added to each well and incubated at 37° C. for 90 min before the cells were examined using bright field microscopy under the 20× objectives of the inverted microscope (Zeiss Axiovert 100 M).
The ability of the G1 and G2 peptides to block HSV-1 entry into natural target cells (HeLa and primary cultures of human CF) was compared. A similar dosage response curve was generated when HeLa (FIG. 2A) or CF (FIG. 2B) were pre-treated with G1 or G2 peptides during HSV-1 entry. […] HeLa cells (FIG. 2A) and primary cultures of human corneal fibroblasts (CF) (FIG. 2B) were tested. Cells in 96-well plates were pre-treated for 60 min with indicated mM concentrations of G1, G2, or Cp peptides. Mock-treated cells (abbreviated as C) served as a control. Pretreated cells were infected with a β galactosidase-expressing recombinant virus HSV-1 (KOS) HSV-1 gL86 (25 pfu/cell) for 6 hr. Viral entry was quantitated as described above in reference to FIG. 1. Confirmation of HSV-1 entry blocking activity of G1, G2, and control (Cp) peptides on a per cell basis was obtained after cells were infected as described above followed by X-gal (1.0 mg/ml) staining (Right panels), which yields an insoluble blue product upon hydrolysis by β-galactosidase expressed from the input viral genomes. […] Microscopy was performed using a 20× objective of Zeiss Axiovert 100.
To better understand the inhibitory potential of G1 and G2 peptides, synthetic short variants (10-mer) were synthesized that lacked the terminal non-positively charged amino acids. In case of G1, N-terminus L and C-terminus H residues were removed. For G2, the N-terminus flanking residues (M and P) were removed. Without being bound by theory, it is believed that 12-mer peptides are too short to adopt substantial secondary or tertiary structures and that the primary structure of those peptides, which includes a defined sequence or groupings of positively charged residues, plays a critical role in mediating inhibition of HSV-1 entry. Synthetic 10-mer versions of G1 and G2 (shown above) were tested for blocking HSV-1(KOS)gL86 entry into cultured CF. After 6 h, the viral entry was measured by ONPG assay as described in FIG. 1.
Alanine (A) scanning mutagenesis was performed to identify specific amino acid residues responsible for each peptide's function, stability, and conformation. O'Nuallain et al., Biochemistry 46:13049-13058 (2007). Twelve synthetic peptides were made whereby each residue of G2 was sequentially replaced with an alanine residue and corresponding changes in the G2 peptide were evaluated for their ability to affect viral entry (FIG. 4B). […]

Sequence | ability of 10-mer version to block HSV-1 entry compared with 12-mer
RRRRIRRRQK [10-mer version of G2] | very similar to the 12-mer in its ability to block HSV-1 entry
RSRTKIIRIR [10-mer version of G1] | almost completely lost its ability to block HSV-1 entry
